Key:
[1] = Caco-2 permeability assay; details: human, Caco-2
C. difficile spores [2] = assay: Prevention of CDI by bile salt analogs in mice challenged with C. difficile spores; type: in vivo, C57BL/6N mice; details: for CDI signs: mice challenged with 10^8 CFU C. difficile spores, three doses
mice [3] = details: mouse, in vivo, po
Experimental: (§5) CamSA was dissolved in DMSO to a concentration of 100 mg/ml. […] A control group was administered DMSO.

[4] = tested on: C. difficile spore germination; set-up: method as in PMID 21478359; details: in vitro; read-out: IC50, inhibition of C. difficile spore germination; cited from earlier work
[5] = Stability in artificial gastric juice; type: in vitro ADME; details: 24 hours incubation, 37°C, TLC
Experimental: (§1) CamSA was analyzed for stability in simulated gastric and intestinal juices as published. Briefly, 100 mg CamSA was added to 1 ml of either artificial intestinal or artificial gastric juice and incubated at 37°C. Aliquots were taken at 4, 8, 12, and 24 hours. Samples (1 µl) were spotted on silica TLC plates and allowed to air dry. Plates were developed with 75% ethyl acetate/methanol. TLC plates were visualized by spraying with a 10% wt/vol phosphomolybdic acid (PMA)/ethanol solution followed by heating at 100°C for 2 minutes. Quantification of CamSA was determined using a GE Healthcare Typhoon 9410 Variable Mode Imager and analyzed using ImageQuant TL 5.2 software.

[6] = Stability in artificial intestinal juice; type: in vitro ADME; details: 24 hours incubation, 37°C, TLC
Experimental: as §1

[7] = Stability in growth medium alone; type: in vitro ADME
Experimental: Following previous procedures, Escherichia coli DH5α, Bifidobacterium longum (ATCC BAA-999) and Lactobacillus gasseri (ATCC 33323) were incubated for 24 hours at 37°C. […] Samples of spent media were taken at 4, 8, 12, and 24 hours. Bile salt concentration was monitored by TLC as above. Percent conjugated bile salts were derived by dividing the intensity of TLC spots obtained at different times by the intensity of the TLC spot obtained before incubation.

E. coli [8] = assay: Effect on bacterial growth (E. coli); type: cell-based, E. coli DH5α; details: 10 mM in growth medium, OD580 over 8 hours
Experimental: (§2) Laboratory strains of E. coli DH5α, B. longum, L. gasseri, and C. difficile were individually inoculated from freezer stock onto appropriate agar medium as directed by ATCC. Plates were incubated overnight at 37°C either aerobically (L. gasseri and E. coli) or anaerobically (C. difficile and B. longum). Anaerobic conditions consisted of a 5% CO2, 10% H2, and 85% N2 environment. Single cell clones were carefully selected and used to inoculate 5 mL of liquid medium. Inoculated broth was shaken at 37°C for approximately four hours until optical density at 580 nm reached 0.8 representing exponential phase of growth. […] An increase of optical density at 580 nm (OD580) was used to measure exponential bacterial growth. The OD580 was recorded at 0, 1, 2, 3, 4, 6, and 8 hours post subculture inoculation. Growth inhibition was determined by comparing optical density of bile salt-treated cultures with untreated control cultures.

B. longum [9] = type: cell-based
L. gasseri [10] = type: cell-based
C. difficile = assay: Effect on bacterial growth (C. difficile vegetative cells); type: cell-based; details: 10 mM in growth medium, OD580 over 8 hours
Experimental: as §2

Vero cells [11] = assay: Cytotoxicity in Vero cells; type: cell-based; details: overnight
Experimental: (§3) Vero cells, Caco-2 cells, and murine macrophages J774A.1 were seeded in complete medium (minimum essential medium (MEM), 10% fetal bovine serum (FBS), and 1% penicillin/streptomycin). Cells were grown at 37°C with 5% CO2. Cells were detached by incubation with 1 mM EDTA-trypsin for 5 minutes. Complete medium was then added and monolayers lifted with a cell scraper. Cells were recovered at 800×g for 5 minutes at room temperature and the cell pellet was resuspended in fresh complete medium. A sample of cell suspension was treated with trypan blue to determine background non-viable cells. […]
(§4) The 12-well plates containing cell cultures were used as a qualitative method to determine cytotoxicity by visual observation of morphological changes, such as cell rounding. Cell viability was also determined by trypan blue dye exclusion staining. The 96-well plates cultured with mammalian cells were used as a quantitative method to determine cytotoxicity using the CellTiter Glo Luminescent cell viability assay. This assay quantitates the concentration of ATP, which indicates metabolically active cells. […] Luminescence was read with an integration time of 1 second per well using a Tecan Infinite 200 plate reader and iControl software. The luminescence signals from cell cultures supplemented with DMSO only were set as 100% cell viability. […]

Caco-2 cells = assay: Cytotoxicity in Caco-2 cells; type: cell-based; details: overnight
Experimental: as §3, §4

[12] = tested on: murine macrophages J774A.1; assay: Cytotoxicity in murine macrophages J774A.1; type: cell-based; details: macrophage cells, overnight
Experimental: as §3, §4

C. difficile spores [13] = assay: Outgrowth of C. difficile spores in germination medium; type: cell-based, C. difficile strain 630; details: 200 µM in medium, overnight
Vero cells [14] = assay: C. difficile toxin-induced cell death (spent media on Vero cells); type: cell-based; details: 200 µM; Vero cells exposed 24 hours
Experimental: C. difficile strain 630 spores were washed five times with nanopure water, heat activated at 68°C for 30 minutes and washed five more times with water. Spore pellets were resuspended in 0.1 M sodium phosphate buffer supplemented with 0.5% sodium bicarbonate (pH 6.0) to an OD580 of 1.0. […] Spore suspensions were incubated anaerobically at 37°C overnight. The following day, C. difficile cells and spores were removed by centrifugation and spent media filter sterilized. In parallel, Vero and Caco-2 cells were cultured in 96-well plates, as described above. The mammalian cell cultures were then exposed to varying concentrations of sterile spent media for 24 hours. Cell viability was determined as before with the CellTiter Glo viability kit. The luminescence signals from cell cultures supplemented with 0% spent media were set as 100% cell viability. Percent survival for other conditions was calculated relative to these untreated cells.

C. difficile spores [15] = assay: Onset of CDI signs in mice (timing of dosage); type: in vivo, C57BL/6N mice
Experimental: Antibiotic treated mice were challenged by oral gavage with 10^8 CFUs of C. difficile strain 630 spores. Individual groups of five mice were treated with a single 300 mg/kg dose of CamSA at 0, 6, 9 or 12 hours post-spore challenge. A second 300 mg/kg dose of CamSA was administered 24 hours after the first dose.

C. difficile spores [16] = assay: Enumeration of C. difficile vegetative cells and spores in GI contents and feces of treated mice; type: in vivo, C57BL/6N mice
Experimental: Cages from infected animals were changed and feces were collected at different time points. Selected animals were sacrificed at different time points and their GI tract observed for signs of disease. Gastrointestinal tracts were removed in blocks and GI tract contents were flushed with autoclaved water. Feces and intestinal contents were weighed and homogenized in autoclaved water. Aliquots of the fecal suspensions were heated to 68°C for 30 minutes. Heated and unheated feces and GI tract contents were serially diluted in water and plated on Clostridium difficile selective agar (CDSA). Plates were incubated anaerobically for 48 hours and colonies were counted to enumerate colony-forming units (CFUs). CFUs obtained from unheated samples represent the sum of C. difficile vegetative cells and spores. CFUs obtained from heated samples represent the number of C. difficile spores only. The presence of C. difficile was verified by PRO disk.

C. difficile spores [17] = tested on: C. difficile spores; set-up: method as in PMID 23420906; details: single 50 mg/kg dose; without any observable toxicity; cited from earlier work
Caco-2 cell monolayer = assay: Caco-2 permeability assay
mice [18] = assay: Acute toxicity in mice (Fixed Dose Procedure); details: oral gavage, three consecutive days, doses up to saturating 300 mg/kg
Experimental: as §5

E. coli [19] = assay: Stability after incubation with E. coli cultures; details: 24 hour incubation
B. longum [20] = assay: Stability after incubation with BSH-producing bacteria (B. longum); details: 24 hours, 6 mM bile salt
L. gasseri [21] = assay: Stability after incubation with BSH-producing bacteria (L. gasseri); details: 24 hours, 6 mM bile salt
[22] = 300 mg/kg given at 9 or 12 hours post-challenge
[23] = Caco-2, 10 µM, 2 hour incubation

CC(=O)CC(c1ccccc1)c1c(O)c2ccccc2oc1=O (centres unmarked) [Warfarin]
Papp A→B at 2 h, 10 µM [1]: 42.9 ×10⁻⁶ cm/s
Papp B→A at 2 h, 10 µM [1]: 16 ×10⁻⁶ cm/s
Papp at 2 h, 10 µM [1]: > 5 ×10⁻⁶ cm/s
efflux ratio at 2 h, 10 µM [1]: 0.4

C[C@H](CCC(=O)O)[C@H]1CC[C@H]2[C@@H]3[C@H](O)C[C@@H]4C[C@H](O)CC[C@]4(C)[C@H]3CC[C@]12C [chenodeoxycholate]
delay of CDI onset (C. difficile spores [2]; 50 mg/kg): 24 h
CDI signs (C. difficile spores [2]; 50 mg/kg oral gavage): moderate to severe signs of CDI
observable side effects (mice [3]; 50 mg/kg): did not cause any observable side effects
acute toxicity outcome (mice [3]; 300 mg/kg): immediate death
IC50 [4]: 235 µM

CNC(=C[N+](=O)[O-])NCCSCc1ccc(CN(C)C)o1 [Ranitidine]
Papp A→B at 2 h, 10 µM [1]: 0.3 ×10⁻⁶ cm/s
Papp at 2 h, 10 µM [1]: < 0.5 ×10⁻⁶ cm/s
efflux ratio at 2 h, 10 µM [1]: 5.3

C[C@H](CCC(=O)Nc1cccc(S(=O)(=O)O)c1)[C@H]1CC[C@H]2[C@@H]3[C@H](O)C[C@@H]4C[C@H](O)CC[C@]4(C)[C@H]3C[C@H](O)[C@]12C [CamSA]
CDI signs (C. difficile spores [2]; 50 mg/kg oral gavage): no sign of CDI
CDI signs (C. difficile spores [2]; 300 mg/kg oral gavage): no sign of CDI
time without signs of CDI post-challenge (C. difficile spores [2]; treated, spore-challenged mice): ≥ 14 days
degradation in artificial gastric juice [5]: No degradation
degradation in artificial intestinal juice [6]: No degradation
degradation in growth medium alone [7]: not degraded
growth of E. coli (E. coli [8]): unaffected
growth of B. longum (B. longum [9]): unaffected
growth of L. gasseri (L. gasseri [10]): unaffected
growth of C. difficile cells (C. difficile): grew normally
cell viability, visual observation and trypan blue staining (Vero cells [11]): appeared healthy
cell viability, visual observation and trypan blue staining (Caco-2 cells): appeared healthy
cell viability, visual observation and trypan blue staining [12]: appeared healthy
bacterial growth from C. difficile spores (C. difficile spores [13]): reduced but not eliminated
cell killing by spent media from treated bacterial cultures (Vero cells [14]): less effective at killing epithelial cells
CDI outcome (C. difficile spores [15]; [22]): developed severe CDI
time to clinical endpoint post infection (C. difficile spores [15]; [22]): 48 h
protection from CDI (C. difficile spores [15]; 300 mg/kg given up to 6 hours post-challenge): fully protected from CDI
C. difficile vegetative cells in feces compared to spore counts (C. difficile spores [16]; mice treated with 50 mg/kg): < 10%
C. difficile content of feces (C. difficile spores [16]; treated mice): almost exclusively spores
spores recovered from the cecum and colon (C. difficile spores [16]; treated mice, before the decrease (up to 72 hours after spore challenge)): greater than 12×10^5 CFUs
spores recovered from the cecum and colon (C. difficile spores [16]; treated mice, by 96 hours after spore challenge): less than 2×10^5 CFUs
duration of excretion of ingested C. difficile spores post-challenge (C. difficile spores [16]; treated mice, feces): at least 96 hours
start of excretion of ingested C. difficile spores post-challenge (C. difficile spores [16]; treated mice, feces): 2 h
prevention of CDI in mice (C. difficile spores [17]): prevented CDI
Comment: efflux (Caco-2 cell monolayer; 10 µM, two hours): Efflux substrate
Comment: permeability ranking (Caco-2 cell monolayer; 10 µM, two hours): Low (Low (Papp < 0.5))
Efflux Ratio (Caco-2 cell monolayer; 10 µM, two hours, >2 indicates significant efflux activity): >2
apical to basolateral apparent permeability coefficient (Papp) (Caco-2 cell monolayer; [23]): < 10^−6 cm/s
basolateral to apical Papp (Caco-2 cell monolayer; [23]): 10.9 ×10⁻⁶ cm/s
recovery (Caco-2 cell monolayer; both A→B and B→A assays): 100%
physical adverse effects or weight loss (mice [18]): No physical adverse effects or weight loss
stability in E. coli cultures (E. coli [19]): stable
hydrolysis to cholic acid by B. longum culture (B. longum [20]): hydrolyzed to cholic acid at similar rates
fraction hydrolyzed to cholic acid by L. gasseri culture (L. gasseri [21]): Less than 30%
